Values joined by “and” are separate entries in the source; they are usually repeats but may differ in a detail not shown here. Equal entries are not always repeated. Where two headings read alike, the source gives them in different places. Blank lines part the entries; values can stand above or below the compound they belong to.
Tests used:
[1] = molecular target: T1, human renin (Homo sapiens, UniProt P00797); test: Human renin inhibition in vitro; format: biochemical
T1 construct: purchased National Institute for Biological Standards, London
T1 sequence (P00797 67-406): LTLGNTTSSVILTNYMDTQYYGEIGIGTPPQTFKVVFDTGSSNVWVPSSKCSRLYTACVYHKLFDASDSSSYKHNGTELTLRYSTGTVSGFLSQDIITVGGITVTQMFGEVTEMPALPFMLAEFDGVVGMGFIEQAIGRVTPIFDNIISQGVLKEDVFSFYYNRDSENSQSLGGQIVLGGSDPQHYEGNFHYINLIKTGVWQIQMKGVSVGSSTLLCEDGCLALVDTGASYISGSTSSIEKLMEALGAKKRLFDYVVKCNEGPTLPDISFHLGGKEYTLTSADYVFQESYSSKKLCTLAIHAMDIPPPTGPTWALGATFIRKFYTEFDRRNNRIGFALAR
Description: Compounds of Formula I were evaluated as inhibitors of human renin in an in vitro assay, as follows: This human renin inhibition test has been previously described in detail [Papaioannou et al., Clinical and Experimental Hypertension, A7(9), 1243-1257 (1985)]. Human renin was obtained from the National Institute for Biological Standards, London. An incubation mixture was prepared containing the following components: in a total volume of 0.25 mL: 100 mM Tris-acetate buffer at pH 7.4, 25×10^−6 Goldblatt units of renin, 0.05 mL of plasma from human volunteers taking oral contraceptives, 6.0 mM Na-EDTA, 2.4 mM phenylmethyl sulfonyl fluoride, 1.5 mM 8-hydroxyquinoline, 0.4 mg/mL bovine serum albumin (BSA), and 0.024 mg/mL neomycin sulfate. This mixture was incubated for two hours at 37° C. in the presence or absence of renin inhibitors. The produced angiotensin I was determined by radioimmunoassay (New England Nuclear kit). Test compounds to be assayed were dissolved in DMSO and diluted with 100 mM Tris-acetate buffer at pH 7.4 containing 0.5% BSA to the appropriate concentration. The final concentration of organic solvent in the reaction mixture was less than 1%. Control incubations at 37° C. were used to correct for effects of organic solvent on renin activity.

[2] = test system: Plasma Renin Activity (PRA); test: Marmoset plasma renin activity (PRA) reduction on oral administration; format: in vivo, Marmoset monkeys (Callithrix jacchus); details: IG; for inhibition at 0.1 mg/kg / inhibition at 1 mg/kg: Primates, po
Description: The oral activity of renin inhibitor compounds was determined in vivo in Marmoset monkeys using the following procedure. Common Marmoset monkeys (Callithrix jacchus, Charles River, both sexes, body weight 300-400 g) were placed on a modified high-protein low-sodium diet (Purina, St. Louis, Mo.) for 1 week. About 24 hours prior to the administration of test compound, Lasix (5 mg/kg, im) was given. On the day of the test, the animal was anesthetized with isoflurane, body weight recorded, and a baseline blood sample taken. Then, test compound was given intragastrically and blood samples were taken in K-EDTA for plasma renin activity at appropriate time intervals. The PRA was determined by using the protocol outlined below. Results are expressed in terms of PRA at various time intervals both before and after compound administrations (“Pre” means pretreatment levels before compound administrations). Also included is percent inhibition (% INH from pretreatment levels).
I. Angiotensin I Generation
25 ml of the above reaction mixtures, in duplicate, were incubated at 37° C. or 0° C. for 2 hours.
II. Determination of Angiotensin I Concentrations
Angiotensin I (AI) concentrations were determined by radioimmunoassays with a commercial kit from NEN Co.
III. Calculation of Plasma Renin Activity
PRA (ng AI/ml/hr)=(AI at 37°−AI at 0°)/2 hr.

[3] = 0.1 MPK, 60 min, individual monkeys
[4] = 0.1 MPK, 60 min from dosing, individual monkeys
[5] = 0.1 MPK, 120 min, individual monkeys
[6] = 0.1 MPK, 120 min from dosing, individual monkeys
[7] = 0.1 MPK, 240 min, individual monkeys
[8] = 0.1 MPK, 240 min from dosing, individual monkeys
[9] = 0.1 MPK, Pre (pretreatment level), individual monkeys
[10] = 0.1 MPK, 60 min, individual monkeys, read-out: % INH (from pretreatment PRA)
[11] = 0.1 MPK, 240 min, individual monkeys, read-out: % INH (from pretreatment PRA)
[12] = 1 h, 0.1 MPK, 60 min, mean of monkeys A-C, read-out: MEAN % INH
[13] = 2 h, 0.1 MPK, 120 min, mean of monkeys A-C, read-out: MEAN % INH
[14] = 4 h, 0.1 MPK, 240 min, mean of monkeys A-C, read-out: MEAN % INH

IC50 [1]: 4 nM
Compound: C#CC[C@H](NC(=O)C(Cc1ccccc1)OC(=O)N(C)CCN(C)C)C(=O)NC(CC1CCCCC1)[C@@H](O)C(O)CC(C)C (relative stereo) [Example 2, [1R*-[[[1R*-[[[1S,1R*-(Cyclohexylmethyl)-2S*,3R*-dihydroxy-5-methylhexyl]amino]carbonyl]-3-butynyl]amino]carbonyl]-2-phenylethyl)[2-(dimethylamino)ethyl]methylcarbamate]
% INH (from pretreatment PRA) [2, 3]: 71.5% and 81.2% | PRA [2, 4]: 3.9 ngAI/ml/hr and 33.9 ngAI/ml/hr and 12.7 ngAI/ml/hr | % INH (from pretreatment PRA) [2, 5]: 86.4% and 64.8% and 78.7% | PRA [2, 6]: 5.7 ngAI/ml/hr and 41.8 ngAI/ml/hr and 14.4 ngAI/ml/hr | % INH (from pretreatment PRA) [2, 7]: 57.2% and 58.2% | PRA [2, 8]: 28.5 ngAI/ml/hr and 18.1 ngAI/ml/hr and 49.7 ngAI/ml/hr | PRA [2, 9]: 42.2 ngAI/ml/hr and 118.8 ngAI/ml/hr and 67.5 ngAI/ml/hr | inhibition at 0.1 mg/kg [2, 10]: 90.7% | inhibition at 0.1 mg/kg [2, 11]: 57.7% | inhibition at 0.1 mg/kg [2, 12]: 81.1 ± 6% | inhibition at 0.1 mg/kg [2, 13]: 76.6 ± 6% | inhibition at 0.1 mg/kg [2, 14]: 57.7%

IC50 [1]: 3 nM
Compound: C#CCC(NC(=O)C(Cc1ccccc1)OC(=O)N(C)CCN(C)C)C(=O)NC(CC1CCCCC1)[C@@H](O)C(O)CC(C)C (stereo in doubt) [Example 3, [1R*-[[[1-[[[1S,1R*-(Cyclohexylmethyl)-2S*,3R*-dihydroxy-5-methylhexyl]amino]carbonyl]-3-butynyl]amino]carbonyl]-2-phenylethyl[]2-(dimethylamino)ethyl]methylcarbamate]
% INH (from pretreatment PRA) [2, 3]: 60.7% and 66.7% | PRA [2, 4]: 42.1 ngAI/ml/hr and 29.8 ngAI/ml/hr and 27.8 ngAI/ml/hr | % INH (from pretreatment PRA) [2, 5]: 46.9% and 60.3% | PRA [2, 6]: 47.1 ngAI/ml/hr and 40.3 ngAI/ml/hr and 33.2 ngAI/ml/hr | % INH (from pretreatment PRA) [2, 7]: 63.9% and 48% | PRA [2, 8]: 36.1 ngAI/ml/hr and 38.1 ngAI/ml/hr and 39.5 ngAI/ml/hr | PRA [2, 9]: 105.5 ngAI/ml/hr and 76 ngAI/ml/hr and 83.7 ngAI/ml/hr | PRA ([2]; 1.0 MPK, 60 min from dosing, individual monkeys): 0 ngAI/ml/hr | PRA ([2]; 1.0 MPK, 120 min from dosing, individual monkeys): 0 ngAI/ml/hr | PRA ([2]; 1.0 MPK, 240 min from dosing, individual monkeys): 0 ngAI/ml/hr | PRA ([2]; 1.0 MPK, Pre (pretreatment level), individual monkeys): 70.5 ngAI/ml/hr and 185.4 ngAI/ml/hr and 76.1 ngAI/ml/hr | inhibition at 0.1 mg/kg [2, 10]: 60.1% | inhibition at 0.1 mg/kg ([2]; 0.1 MPK, 120 min, individual monkeys, read-out: % INH (from pretreatment PRA)): 55.3% | inhibition at 0.1 mg/kg [2, 11]: 56.8% | inhibition at 1 mg/kg ([2]; 1.0 MPK, 60 min, individual monkeys, read-out: % INH (from pretreatment PRA)): 100% | inhibition at 1 mg/kg ([2]; 1.0 MPK, 120 min, individual monkeys, read-out: % INH (from pretreatment PRA)): 100% | inhibition at 1 mg/kg ([2]; 1.0 MPK, 240 min, individual monkeys, read-out: % INH (from pretreatment PRA)): 100% | inhibition at 1 mg/kg ([2]; 1.0 MPK, printed on the Pre line, read-out: % INH): 100% | inhibition at 0.1 mg/kg [2, 12]: 62.5 ± 2% | inhibition at 1 mg/kg ([2]; 1 h, 1.0 MPK, 60 min, mean of monkeys, read-out: MEAN % INH): 100% | inhibition at 0.1 mg/kg [2, 13]: 54.2 ± 4% | inhibition at 1 mg/kg ([2]; 2 h, 1.0 MPK, 120 min, mean of monkeys, read-out: MEAN % INH): 100% | inhibition at 0.1 mg/kg [2, 14]: 56.2 ± 5% | inhibition at 1 mg/kg ([2]; 4 h, 1.0 MPK, 240 min, mean of monkeys, read-out: MEAN % INH): 100%

IC50 [1]: 1 nM
Compound: C#CC[C@H](NC(=O)[C@@H](CC(=O)N(C)CCN(CC)CC)Cc1ccccc1)C(=O)N[C@@H](CC1CCCCC1)[C@@H](O)[C@@H](O)CC(C)C [Example 4]
